From publication PMC8150775, “Repositioning Azelnidipine as a Dual Inhibitor Targeting CD47/SIRPα and TIGIT/PVR Pathways for Cancer Immuno-Therapy” (Biomolecules, 2021)

How the values were obtained:
CT26 tumors = test: CT26 tumor model with ex vivo T cell analysis; type: in vivo, BALB/c mice; conditions: for Spleen CD8+IFN-γ (%): splenocytes
Protocol: BABL/c mice were subcutaneously (s.c.) injected with 2 × 10^5 CT26 cells on the right back, and C57BL/6 mice were injected with 1 × 10^6 MC38 cells. One week later, tumor-bearing mice were randomized into indicated groups, and intraperitoneal (i.p.) injected with azelnidipine or normal saline every day for two weeks. Tumor volumes were measured every other day by the (a) length, (b) width, and (c) height and calculated as volume (V) = a × b × c/2. For the combinational model of azelnidipine and radiotherapy (RT), MC38 tumor-bearing mice received irradiation (IR) when the tumors reached 80–100 mm^3. The mice received one dose of 20 Gy irradiation at the tumor local site, and followed by the treatment of azelnidipine.
Tumor-bearing mice were sacrificed at the end of the treatment. The tumors were dissected and digested into single cell with an enzyme cocktail of 100 U/mL collagenase IV; and Dnase I. The infiltration of CD8^+ T cells at the tumor site was detected by flow cytometry by staining of anti-mouse CD45, anti-mouse CD3, anti-mouse CD8α or isotype control. The MDSCs at the tumor site were analyzed by staining of anti-mouse CD45, anti-mouse CD11b, anti-mouse Ly6C, and anti-mouse Ly6G. Spleens and draining lymph nodes were grinded and filtered into a single cell suspension. The tumor-infiltrating lymphocytes (TILs) isolated by Percoll-gradient centrifugation, splenocytes, and cells from draining lymph nodes were also performed the intracellular cytokine staining assays. The cells were stimulated with or without 20 ng/mL of phorbol 12-myristate 13-acetate (PMA, Sigma-Aldrich, St. Louis, MO, USA) and 1 µM ionomycin (Sigma-Aldrich) with the presence of protein transport inhibitor cocktail (eBioscience) for 4 h. The surface marker CD3, CD8, and the intracellular cytokine marker IFN-γ were sequentially stained according to the Foxp3/Transcription Factor Staining Buffer Set (00-5523, eBioscience). The frequency of IFN-γ secreting CD8^+ T cells were counted according to the fluorescence minus one (FMO) control with the isotype control of IFN-γ antibody.
Figure 6 The antitumor effects of azelnidipine in CT26 tumor model. (A) CT26 tumor-bearing mice were i.p. administrated with 2 or 5 mg/kg of azelnidipine each day for 2 weeks as in the schematic diagram. (B) Tumor growth curve of CT26 tumor-bearing mice treated with normal saline or azelnidipine (n = 7). *, p < 0.05, ***, p < 0.001.Two-way ANOVA with Tukey’s multiple-comparisons test were conducted. (C) Representative flow cytometry plots and summary data of the frequency of CD8^+ T cells in the tumor tissues. Representative intracellular IFN-γ staining plots and summary data of the tumor infiltrating CD8^+ T cells (D), tumor-draining lymph node cells (E) and splenocytes (F). The frequency of IFN-γ secreting CD8^+ T cells were counted according to the fluorescence minus one (FMO) control with the isotype control of IFN-γ antibody. *, p < 0.05, **, p < 0.01, Student’s t-test were conducted. TEXT PRINTED IN THE PICTURE: (C) NS: Tumor CD3^+CD8^+ (%): 6.27 | (C) Azelnidipine: Tumor CD3^+CD8^+ (%): 7.46 (2 mg/kg); Tumor CD3^+CD8^+ (%): 9.35 (5 mg/kg) | (D) NS: Tumor CD8^+IFN-γ (%): 14.8 | (D) Azelnidipine: Tumor CD8^+IFN-γ (%): 12.4 (2 mg/kg); Tumor CD8^+IFN-γ (%): 20.0 (5 mg/kg) | (E) NS: dLN CD8^+IFN-γ (%): 0.45 | (E) Azelnidipine: dLN CD8^+IFN-γ (%): 0.53 (2 mg/kg); dLN CD8^+IFN-γ (%): 1.10 (5 mg/kg) | (F) NS: Spleen CD8^+IFN-γ (%): 5.32 | (F) Azelnidipine: Spleen CD8^+IFN-γ (%): 7.71 (2 mg/kg); Spleen CD8^+IFN-γ (%): 7.91 (5 mg/kg) DOUBTS OF THE COPYIST ABOUT THIS PICTURE: Panels C-F: the flow plots are headed only 'NS', '2 mg/kg' and '5 mg/kg'. The name 'Azelnidipine' is taken from panels A and B of the same picture. / Panels C-F: the numbers in the flow plots have no measure or unit beside them. The measure (e.g. 'CD3^+CD8^+ (%)') and the tissue ('Tumor', 'dLN', 'Spleen') are taken from the bar chart in the same panel. / NS is the control group. […]

PVR [1] = test: Flow cytometry of PVR expression on CT26 cells in vitro; type: cell-based, mouse; conditions: 20 μM, 24 h
Protocol: (§1) Cells in good growth condition were harvested and used to detect the expression of CD47 and PVR. Antibodies anti-human CD47 APC, anti-human PVR PE, anti-mouse-CD47 APC, anti-mouse-PVR APC, and matched isotype controls were purchased from eBioscience, San Diego, CA, USA. The effects of azelnidipine on the expression of CD47 and PVR was determined by incubating CT26 cells with 20 μM of azelnidipine for 24 h, or directly analyzing the tumor cells from tumor tissues of CT26-bearing mice treated with or without azelnidipine.
(§2) Figure S3. The effects of Azelnidipine on the expression of CD47 and PVR on CT26 tumor cells. (A and B) CT26 cells were incubated with 20 μM Azelnidipine or vehicle control for 24h, and analyzed the expression of CD47 (A) and PVR (B). The gray shaded histogram represents the isotype, the red line represents the cells treated with vehicle control, and the blue line represents the cells treated with Azelnidipine. (C and D) Tumor cells (CD45-) derived from the tumor tissues of CT26 tumor-bearing mice treated with normal saline (NS) or 5 mg/kg Azelnidipine for twelve days, were analyzed for the expression of CD47 (C) and PVR (D). n.s. means not […]
(§3) (1 picture or pasted object on this page, not shown here)

PVR [2] = test: Flow cytometry of PVR expression on tumor cells from CT26-bearing mice; type: in vivo, mouse; conditions: 5 mg/kg for twelve days, CD45- tumor cells
Protocol: as §1, §2, §3

With `CC1=C(C(=O)OC(C)C)C(c2cccc([N+](=O)[O-])c2)C(C(=O)OC2CN(C(c3ccccc3)c3ccccc3)C2)=C(N)N1` (centres unmarked) [Azelnidipine] the “Spleen CD8+IFN-γ (%)” value (CT26 tumors; 2 mg/kg i.p. (low dosage)) was “enhance”, the “Spleen CD8+IFN-γ (%)” value (CT26 tumors; 5 mg/kg i.p. (high dosage)) was “significantly boost” and the “dLN CD8+IFN-γ (%)” value (CT26 tumors; 5 mg/kg i.p. (high dosage), tumor-draining lymph node) was “significantly boost”. The CT26 tumor growth (CT26 tumors; 2 and 5 mg/kg i.p. each day for 2 weeks) was “significantly restrict”, the “IFN-γ secretion function of the tumor infiltrating CD8+ T cells” value (CT26 tumors; dose not given) was “enhanced” and the “frequency of CD8+ T cells in the tumor tissues” value (CT26 tumors; dose not given) was “remarkably increase”. The “expression of PVR on CT26 cells” value (PVR [1]) was “slightly inhibit” and the “expression of PVR on CT26 tumor cells derived from tumor tissues” value (PVR [2]) was “could inhibit the expression of PVR”.
